What all share (assay): biochemical
Common to all, as to assay type: binding

For assay [1], the target named is HLA-DR DRB1*0101 (DR1) (Homo sapiens, UniProt P01903+P01911, A100R/D57E/F55L/F60I/F76Y/I96L/L162R/M171V/P40L/Q125E/R42F/V115G/Y59C).
For assay [2], the target named is HLA-DR DRB1*0301 (DR3) (Homo sapiens, UniProt P01903+P01911, A100K/A102G/A103R/A169T/F55Y/I96L/K41T/L162R/M171V/P40S/Q125H/Q178H/Q39Y/R42S/S66N/T106N/T262R/W38E/Y61H).
Assay [3] has as its target HLA-DR DRB1*0401 (DR4) (Homo sapiens, UniProt P01903+P01911, A100K/A169T/F76Y/I96L/K127E/L162R/M171V/N62H/P40V/Q125Y/R42H/S133A/S149N/S66Y/V115G/V209L/W38E).
Assay [4] deals with HLA-DR DRB1*0405 (DR4) (Homo sapiens, UniProt P01903+P01911, A100R/A169T/D86S/F76Y/I96L/K127E/L162R/M171V/N62H/P40V/Q125Y/R42H/S133A/S149N/S66Y/V115G/V209L/W38E).
Assay [5] deals with HLA-DR DRB1*0701 (DR7) (Homo sapiens, UniProt P01903+P01911, A100R/A102G/A103Q/D57E/D86V/E43K/F76Y/K127E/L162R/M171V/P40G/Q125H/Q99D/R33Q/R42Y/R54Q/S133A/S66F/T210M/V115G/Y107V/Y59L/Y89S).
The target in assay [6] is HLA-DR DRB1*1101 (DR11) (Homo sapiens, UniProt P01903+P01911, A100R/A169T/A87E/I96F/K41T/L162R/M171V/P40S/Q125H/Q178H/Q39Y/Q99D/R42S/S66Y/T262R/V115G/W38E). The note with it: DRB1 *1101.
HLA-DR DRB1*1101 (DR11), sequence (P01903 26-254 limits assumed, other chains not shown): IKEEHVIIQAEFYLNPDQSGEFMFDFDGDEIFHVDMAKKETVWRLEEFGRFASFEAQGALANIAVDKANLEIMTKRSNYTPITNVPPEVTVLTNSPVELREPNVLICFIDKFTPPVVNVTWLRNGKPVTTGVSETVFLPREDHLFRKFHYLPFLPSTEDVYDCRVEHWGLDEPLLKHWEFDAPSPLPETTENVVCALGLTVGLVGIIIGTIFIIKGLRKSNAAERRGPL
Assay [7] deals with HLA-DR DRB1*1302 (DR13) (Homo sapiens, UniProt P01903+P01911, A100E/A169T/K41T/L162R/M171V/P40S/Q125H/Q178H/Q39Y/Q99D/R42S/S66N/T262R/V115G/W38E/Y61H). The note with it: DRBI *1302.
HLA-DR DRB1*1302 (DR13), sequence (P01903 26-254 limits assumed, other chains not shown): as above
Assay [8] deals with HLA-DR DRB1*1501 (DR15) (Homo sapiens, UniProt P01903+P01911). The note with it: DRBI *1501.
Assay [9] concerns the target HLA-DR DRB4*0101 (DR53) (Homo sapiens, UniProt P01903+P13762, G164S). The note with it: DRB4 *0101.
For assay [10], the target named is HLA-DR DRB5*0101 (DR51) (Homo sapiens, UniProt P01903+Q30154). The note with it: DRB5 *0101.
The target of assay [11] is HLA-A*0301 (Homo sapiens, UniProt P04439).
In assay [12] the target is HLA-A*1101 (Homo sapiens, UniProt P04439, A114D/D185E/E176A/F33Y/L180Q/S129P/T187R).
HLA-A*1101, sequence (P04439 25-365 limits assumed, stated change not applied): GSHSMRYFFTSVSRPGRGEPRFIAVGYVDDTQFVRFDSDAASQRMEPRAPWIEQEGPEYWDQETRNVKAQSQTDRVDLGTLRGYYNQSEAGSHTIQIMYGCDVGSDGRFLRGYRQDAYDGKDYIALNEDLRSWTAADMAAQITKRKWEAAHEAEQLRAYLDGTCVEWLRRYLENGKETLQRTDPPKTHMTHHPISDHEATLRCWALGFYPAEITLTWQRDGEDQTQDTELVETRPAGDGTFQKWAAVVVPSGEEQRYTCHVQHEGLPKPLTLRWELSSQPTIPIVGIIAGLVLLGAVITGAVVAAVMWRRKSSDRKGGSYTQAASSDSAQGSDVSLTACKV
Assay [13] has as its target HLA-A*3101 (Homo sapiens, UniProt P04439, A270S/D185E/E176V/E277Q/F33T/G231S/G80R/H175R/I121M/I218V/I322F/K168Q/L300P/L318F/M331R/P217A/Q94H/R138Q/T323A/T345S/T97I/V358M).
In assay [14] the target is HLA-A*3301 (Homo sapiens, UniProt P04439, A270S/D185E/E176V/E277Q/E87N/F33T/G231S/H175R/I121M/I218V/I322F/K168Q/K210R/L300P/L318F/M331R/P217A/Q86R/Q94H/R138Q/T323A/T345S/T97I/V358M/Y195H).
The target in assay [15] is HLA-A*6801 (Homo sapiens, UniProt P04439, A269V/D185E/E176V/E277Q/E87N/F33Y/G231S/I121M/I166T/I218V/L180W/L300P/L318F/N151K/P208A/P217A/Q86R/R169H/T345S).

Like-named read-outs stand apart in the source and are kept apart here. No end group written: not given here.

HLA-DR DRB1*0301 (DR3), sequence (P01903 26-254 limits assumed, other chains not shown): as the sequence (P01903 26-254 limits assumed, other chains not shown) above

Take `CC[C@H](C)[C@H](NC(=O)[C@H](CO)NC(=O)[C@H](CC(=O)O)NC(=O)[C@H](CCCNC(=N)N)NC(=O)[C@H](Cc1ccc(O)cc1)NC(=O)[C@@H](NC(=O)[C@@H](NC(=O)[C@H](Cc1ccccc1)NC(=O)[C@@H](N)CC(C)C)C(C)C)C(C)C)C(=O)N1CCC[C@H]1C(=O)N[C@@H](Cc1c[nH]cn1)C(=O)N[C@@H](C)C(=O)N[C@@H](C)C(=O)N[C@@H](CS)C(=O)N[C@@H](Cc1c[nH]cn1)C(=O)O`: the IC50 in assay [1] (DRB1 *0101) was determined as 131 nM; in [2], 62 nM; in assay [3] (DRB1 *0401), 3 nM; in [4] (DRB1 *0405), 690 nM; in assay [5] (DRB1 *0701), 2000 nM; in [6], 1580 nM. The IC50 in [7] worked out at 697 nM; in assay [8], 437 nM; in assay [9], 3580 nM; in [10], 7850 nM.

With YLAMPFATPMEAELARRSLA, the IC50 in [1] (DRB1 *0101) was found to be 46 nM; in assay [2], 46600 nM; in [3] (DRB1 *0401), 266 nM; in assay [4] (DRB1 *0405), 405 nM; in [7], 2810 nM; in assay [8] it was 865 nM. Also, the results for the IC50 in [9] and in assay [10] were 1960 nM and 641 nM, respectively.

Regarding EFAFKDLFVVYRDS, the IC50 in [3] (read-out: DRB1 *0401) is 2220 nM; in [4] (read-out: DRB1 *0405), 33 nM; in assay [5] (read-out: DRB1 *0701), 3690 nM.

For the molecule LRAFQQLFLNTLSFV, the IC50 in assay [1] (DRB1 *0101) came out at 1.5 nM; in assay [2], 648 nM; in assay [3] (DRB1 *0401), 7.4 nM; in assay [4] (DRB1 *0405), 8.3 nM; in assay [5] (DRB1 *0701) it was 75 nM; in assay [7] it was 1.01 nM. Moreover, the IC50 came out at 20 nM in [8] and 2.2 nM in assay [9].

On to IQQLLMGTVNIYCPT, for which the IC50 in assay [1] (read-out: DRB1 *0101) turned out to be 71 nM; in assay [2] (read-out: DRB1 *0301), 93700 nM; in assay [4] (read-out: DRB1 *0405) it was 624 nM.

HYCYSLYGTTLEQQY: the IC50 in assay [1] (DRB1 *0101) is 546 nM; in [4] (DRB1 *0405) it was 76 nM; in [5] (DRB1 *0701), 9860 nM; in [7], greater than 13700 nM; in assay [8], 4850 nM; in assay [10], greater than 10700 nM.

For `CC[C@H](C)[C@H](NC(=O)[C@@H](N)Cc1c[nH]c2ccccc12)C(=O)N[C@H](C(=O)N[C@@H](CCC(N)=O)C(=O)N[C@@H](CS)C(=O)N[C@@H](Cc1ccccc1)C(=O)N[C@@H](CC(C)C)C(=O)N1CCC[C@H]1C(=O)N[C@H](C(=O)N[C@@H](Cc1ccccc1)C(=O)N[C@@H](CC(C)C)C(=O)N[C@@H](C)C(=O)N[C@@H](CCC(N)=O)C(=O)N1CCC[C@H]1C(=O)N1CCC[C@H]1C(=O)N[C@@H](CO)C(=O)NCC(=O)N[C@@H](CCC(N)=O)C(=O)N[C@@H](CCCNC(=N)N)C(=O)N[C@@H](CCCNC(=N)N)C(=O)O)C(C)C)[C@@H](C)O`, the IC50 was 679 nM in [1] (DRB1 *0101); 25500 nM in assay [2]; 88 nM in assay [3] (DRB1 *0401); 216 nM in assay [4] (DRB1 *0405); 74200 nM in assay [5] (DRB1 *0701).

Regarding KKPLNEILIRCIICQ, the IC50 in assay [3] (read-out: DRB1 *0401) was determined as 315 nM; in assay [4] (read-out: DRB1 *0405), 347 nM; in assay [5] (read-out: DRB1 *0701) it was 7970 nM.

For LRIVYRDGNPFAVCK, the IC50 in assay [3] (DRB1 *0401) is 16 nM; in assay [4] (DRB1 *0405) it was 557 nM; in [5] (DRB1 *0701), 8990 nM; in assay [6], 109 nM; in assay [7], 123 nM; in [9], 1570 nM. For the same molecule, the IC50 in assay [10] was 6820 nM.

Take YKFLFTDLRIVYRDN: the IC50 came out at 109 nM in assay [1] (DRB1 *0101); 8.8 nM in assay [2]; 91 nM in assay [4] (DRB1 *0405); 1520 nM in assay [5] (DRB1 *0701); 10100 nM in assay [6]; 77 nM in assay [7]. The IC50 came to 2910 nM in assay [8], 1340 nM in assay [9] and 800 nM in assay [10].

Regarding VTVYGPGPGWK, the IC50 is 1150 nM in [11]; 18 nM in assay [12]; greater than 9000 nM in assay [13]; greater than 103000 nM in assay [14]; 206 nM in [15].

As for YSVYGTTLER, the IC50 stood at 430 nM in [11]; 96 nM in assay [12]; 2140 nM in assay [13]; 6900 nM in [14]; 19 nM in [15].

For the molecule STGPGPGVVRR, the IC50 was 18700 nM in assay [11]; 367 nM in assay [12]; 95 nM in [13]; 5980 nM in assay [14]; 5.8 nM in [15].

As to ALKISQLQK, the IC50 in [11] was 15 nM; in [12] it was 96 nM; in assay [13], 3200 nM; in assay [14] it was 23800 nM; in assay [15] it was greater than 54800 nM.

RVRRRRWRAR: the IC50 in [11] is 2440 nM; in assay [12], greater than 16800 nM; in assay [13], 265 nM; in assay [14], 3760 nM; in assay [15], greater than 36900 nM.

HQAISPRTLNGPGPGSPAIF: the IC50 in [1] (DRB1 *0101) is 1550 nM; in assay [2], 728000 nM; in [4] (DRB1 *0405) it was 3110 nM; in [5] (DRB1 *0701), 5080 nM; in [6] it was 9870 nM; in assay [7], 638 nM. The figures for the IC50 in [8], in assay [9] and in assay [10] were 5570 nM, 232 nM and 32900 nM, respectively.

On to TVQPGPGPGK, for which the IC50 was 41 nM in [11]; 2.5 nM in [12]; 1340 nM in assay [13]; 68600 nM in assay [14]; 28 nM in assay [15].

Consider YDFVFADLRIVYRNG, for which the IC50 worked out at 13 nM in assay [2] (read-out: DRB1 *0301), 1910 nM in assay [3] (read-out: DRB1 *0401), 829 nM in [4] (read-out: DRB1 *0405) and 21400 nM in [5] (read-out: DRB1 *0701).

Regarding SFYGTTLEK, the IC50 in assay [11] came to 34 nM; in assay [12], 15 nM; in [13] it was 517 nM; in assay [14], 3380 nM; in [15], 498 nM.

Turning to SLYGKTLEEK, the IC50 in assay [11] was 7.9 nM; in assay [12], 6.8 nM; in assay [13], 1040 nM; in assay [14], 6520 nM; in assay [15], 29 nM.

In the case of STLGPGPGVRR, the IC50 in assay [11] worked out at 892 nM; in assay [12], 19 nM; in assay [13], 42 nM; in [14] it was 670 nM; in assay [15] it was 3.8 nM.

Regarding DTIPHAACHK, the IC50 worked out at 2370 nM in assay [11]; 701 nM in [12]; 1760 nM in assay [13]; 9.3 nM in [14]; 23 nM in assay [15].

Take SVCRSSRTR: the IC50 amounted to 323 nM in [11]; 97 nM in assay [12]; 249 nM in [13]; 547 nM in assay [14]; 17 nM in assay [15].

The values above are taken from US20060079453A1, “Hla binding peptides and their uses” (priority 2002, published 2006).
